Values of other authors, collected in patent publication US12557779B2 (priority 2020, dated 2026).

Target: cannabinoid receptor type 2 (CB2) (Homo sapiens, UniProt P34972)
Sequence (P34972 whole entry, species assumed): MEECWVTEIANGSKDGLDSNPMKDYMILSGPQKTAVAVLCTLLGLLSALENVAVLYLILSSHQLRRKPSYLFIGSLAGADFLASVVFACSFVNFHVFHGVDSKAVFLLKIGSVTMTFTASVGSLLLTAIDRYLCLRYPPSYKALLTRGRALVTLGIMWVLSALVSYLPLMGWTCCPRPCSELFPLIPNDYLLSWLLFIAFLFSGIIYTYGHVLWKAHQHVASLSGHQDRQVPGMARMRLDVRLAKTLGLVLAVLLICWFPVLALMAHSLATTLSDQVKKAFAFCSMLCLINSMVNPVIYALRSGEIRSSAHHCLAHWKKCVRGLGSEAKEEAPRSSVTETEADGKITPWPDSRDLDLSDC

C=C(C)[C@@H]1CCC(C)=C[C@H]1c1c(O)cc(CCCCC)cc1O [CBD, cannabidiol]
affinity for CB2: minimal affinity
